Experimental data from PubChem BioAssay AID1963447 (Molecular Pharmacology Branch, DTP, NCI, 2024).
pIC50: −log10 of the molar value. Several values for one entry are separate records, joined by “and”; a condition that tells them apart may be missing. Identical values can stand only once.

System: 885512-296-R-J2-PDC complex spheroid growth, % test/control
Experiment: Anticancer human tumor 885512-296-R-J2-PDC patient-derived breast carcinoma cell line growth inhibition [Asc]
Conditions: for viability, T/C: stronger effect = lower value
Method in brief: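 Tumor cells were grown as multicellular spheroids with stromal HUVEC and mesenchymal stem cells and treated singly or in combination. Concentrations fell in half-log steps from the clinical Cmax, or from 10 microM where none was known.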
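Further: spheroids exposed to compounds for seven days.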
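Wherever viability, T/C is given: 100% = DMSO vehicle control wells.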

`C=C(F)C(=O)N1CCN(c2nc(OCC3CCCN3C)nc3c2CCN(c2cccc4cccc(Cl)c24)C3)CC1CC#N` (configuration not stated) + CCN1C(C(=O)NC23CCC(C(=O)O)(CC2)CC3)C(c2cccc(Cl)c2F)C2(C(=O)Nc3cc(Cl)ccc32)C12CCCCC2 gave a pIC50 (curve of first compound, second compound 0.03 µM) of 5.64, a pIC50 (curve of first compound, second compound 0.0949 µM) of 5.61 and a pIC50 (curve of first compound, second compound 0.3 µM) of 5.65. It also gave a pIC50 (curve of first compound, second compound 0.949 µM) of 5.72, a pIC50 (curve of first compound, second compound 3 µM) of 5.98 and a viability, T/C (second compound 0.03 µM, first compound 0.0316 µM) of 96.3%. It also gave a viability, T/C (second compound 0.03 µM, first compound 0.1 µM) of 110%, a viability, T/C (second compound 0.03 µM, first compound 0.316 µM) of 101% and a viability, T/C (second compound 0.03 µM, first compound 1 µM) of 110%. The viability, T/C (second compound 0.03 µM, first compound 3.16 µM) was 28.6%, the viability, T/C (second compound 0.03 µM, first compound 10 µM) was 0.11% and the viability, T/C (second compound 0.0949 µM, first compound 0.0316 µM) was 118%. It also gave a viability, T/C (second compound 0.0949 µM, first compound 0.1 µM) of 117%, a viability, T/C (second compound 0.0949 µM, first compound 0.316 µM) of 120% and a viability, T/C (second compound 0.0949 µM, first compound 1 µM) of 107%. The viability, T/C (second compound 0.0949 µM, first compound 3.16 µM) was 34%, the viability, T/C (second compound 0.0949 µM, first compound 10 µM) was 0.38% and the viability, T/C (second compound 0.3 µM, first compound 0.0316 µM) was 94%. It also gave a viability, T/C (second compound 0.3 µM, first compound 0.1 µM) of 95.1%, a viability, T/C (second compound 0.3 µM, first compound 0.316 µM) of 98.2% and a viability, T/C (second compound 0.3 µM, first compound 1 µM) of 102%. It also gave a viability, T/C (second compound 0.3 µM, first compound 3.16 µM) of 29.5%, a viability, T/C (second compound 0.3 µM, first compound 10 µM) of 0.1% and a viability, T/C (second compound 0.949 µM, first compound 0.0316 µM) of 69%. The viability, T/C (second compound 0.949 µM, first compound 0.1 µM) was 72%, the viability, T/C (second compound 0.949 µM, first compound 0.316 µM) was 76.9% and the viability, T/C (second compound 0.949 µM, first compound 1 µM) was 90.1%. The viability, T/C (second compound 0.949 µM, first compound 3.16 µM) was 28.6%, the viability, T/C (second compound 0.949 µM, first compound 10 µM) was 0.1% and the viability, T/C (second compound 3 µM, first compound 0.0316 µM) was 43%. It also gave a viability, T/C (second compound 3 µM, first compound 0.1 µM) of 43.3%, a viability, T/C (second compound 3 µM, first compound 0.316 µM) of 51.5% and a viability, T/C (second compound 3 µM, first compound 1 µM) of 67.5%. The viability, T/C (second compound 3 µM, first compound 3.16 µM) was 19.8% and the viability, T/C (second compound 3 µM, first compound 10 µM) was 0.15%.
`C#Cc1c(F)ccc2cc(O)cc(-c3ncc4c(N5CC6CCC(C5)N6)nc(OCC56CCCN5CC(F)C6)nc4c3F)c12` (configuration not stated) + CNC(C)C(=O)NC1CN(S(=O)(=O)c2cccc(S(=O)(=O)N3CCC4CCC(C(=O)NC(c5ccccc5)c5ccccc5)N4C(=O)C(NC(=O)C(C)NC)C3)c2)CCC2CCC(C(=O)NC(c3ccccc3)c3ccccc3)N2C1=O was tested, and the pIC50 (curve of first compound, second compound 0.01 µM) was < 5.00, the pIC50 (curve of first compound, second compound 0.0316 µM) was < 5.00 and the pIC50 (curve of first compound, second compound 0.1 µM) was < 5.00. The pIC50 (curve of first compound, second compound 0.316 µM) was < 5.00, the pIC50 (curve of first compound, second compound 1 µM) was < 5.00 and the viability, T/C (second compound 0.01 µM, first compound 0.0316 µM) was 94.5%. The viability, T/C (second compound 0.01 µM, first compound 0.1 µM) was 111%, the viability, T/C (second compound 0.01 µM, first compound 0.316 µM) was 83.5% and the viability, T/C (second compound 0.01 µM, first compound 1 µM) was 69.7%. The viability, T/C (second compound 0.01 µM, first compound 3.16 µM) was 89.9%, the viability, T/C (second compound 0.01 µM, first compound 10 µM) was 94.5% and the viability, T/C (second compound 0.0316 µM, first compound 0.0316 µM) was 102%. The viability, T/C (second compound 0.0316 µM, first compound 0.1 µM) was 104%, the viability, T/C (second compound 0.0316 µM, first compound 0.316 µM) was 96.6% and the viability, T/C (second compound 0.0316 µM, first compound 1 µM) was 110%. For the same compound, the viability, T/C (second compound 0.0316 µM, first compound 3.16 µM) was 108%, the viability, T/C (second compound 0.0316 µM, first compound 10 µM) was 91.5% and the viability, T/C (second compound 0.1 µM, first compound 0.0316 µM) was 102%. The viability, T/C (second compound 0.1 µM, first compound 0.1 µM) was 97%, the viability, T/C (second compound 0.1 µM, first compound 0.316 µM) was 109% and the viability, T/C (second compound 0.1 µM, first compound 1 µM) was 99.4%. The viability, T/C (second compound 0.1 µM, first compound 3.16 µM) was 108%, the viability, T/C (second compound 0.1 µM, first compound 10 µM) was 86.9% and the viability, T/C (second compound 0.316 µM, first compound 0.0316 µM) was 112%. For the same compound, the viability, T/C (second compound 0.316 µM, first compound 0.1 µM) was 109%, the viability, T/C (second compound 0.316 µM, first compound 0.316 µM) was 104% and the viability, T/C (second compound 0.316 µM, first compound 1 µM) was 112%. The viability, T/C (second compound 0.316 µM, first compound 3.16 µM) was 107%, the viability, T/C (second compound 0.316 µM, first compound 10 µM) was 86.7% and the viability, T/C (second compound 1 µM, first compound 0.0316 µM) was 107%. The viability, T/C (second compound 1 µM, first compound 0.1 µM) was 108%, the viability, T/C (second compound 1 µM, first compound 0.316 µM) was 116% and the viability, T/C (second compound 1 µM, first compound 1 µM) was 105%. It also gave a viability, T/C (second compound 1 µM, first compound 3.16 µM) of 105% and a viability, T/C (second compound 1 µM, first compound 10 µM) of 94.6%.
For `COc1c(OCCCN2CCOCC2)ccc2c3n(c(=NC(=O)c4cnc(N)nc4)nc12)CCN3`, the viability, T/C (compound 0.00316 µM) was 99.3% and 90.1% and 99%, the viability, T/C (compound 0.01 µM) was 100% and 92.6% and 92% and the viability, T/C (compound 0.0316 µM) was 86.8% and 80.5% and 89.4%. For the same compound, the viability, T/C (compound 0.1 µM) was 74.3% and 76% and 89%, the viability, T/C (compound 0.316 µM) was 43.6% and 43.9% and 56.3% and the viability, T/C (compound 1 µM) was 6.01% and 5.98% and 9.51%. The pIC50 (curve of compound) was 6.60 and 6.59 and 6.43.
